The subject of assay [1] is Rattus norvegicus. In words: In vivo Triglyceride lowering activity at dose as 0.10 % of the diet. The assay is classed as functional.
Assay [2] has as its target T1, Sterol O-acyltransferase 1 (Rattus norvegicus) (UniProt O70536).
T1 sequence (whole entry): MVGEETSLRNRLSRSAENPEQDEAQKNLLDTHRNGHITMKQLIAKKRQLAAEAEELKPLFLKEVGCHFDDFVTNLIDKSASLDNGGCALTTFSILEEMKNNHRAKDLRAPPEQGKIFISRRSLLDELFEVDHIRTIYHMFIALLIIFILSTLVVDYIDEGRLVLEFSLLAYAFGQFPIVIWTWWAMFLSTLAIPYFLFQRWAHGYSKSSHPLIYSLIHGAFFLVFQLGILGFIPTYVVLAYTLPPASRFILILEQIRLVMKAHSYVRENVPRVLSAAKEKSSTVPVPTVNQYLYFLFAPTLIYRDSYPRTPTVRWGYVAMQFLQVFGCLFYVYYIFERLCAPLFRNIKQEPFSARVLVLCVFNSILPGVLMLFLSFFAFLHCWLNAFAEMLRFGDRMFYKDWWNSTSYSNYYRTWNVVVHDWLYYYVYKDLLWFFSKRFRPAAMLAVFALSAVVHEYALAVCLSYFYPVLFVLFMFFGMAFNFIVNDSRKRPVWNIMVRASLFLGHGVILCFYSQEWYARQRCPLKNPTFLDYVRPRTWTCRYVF
In words: In vitro inhibitory activity against acyl coenzyme A:cholesterol acyltransferase. On the set-up: concentration or dose not given beside the values. Particulars: concentration not given here.

Assay [3] has as its system Rattus norvegicus. Nature of the assay: In vivo Sterol lowering activity at dose as 0.10 % of the diet. Format: functional.
For assay [4], the system named is Rattus norvegicus. In words: In vivo Sterol lowering activity at dose as 0.01% of the diet. The assay is classed as functional.
Assay [5] concerns Rattus norvegicus. Nature of the assay: In vivo sterol lowering activity, dosed as 0.03 % of the diet. Format: functional.
Assay [6] relates to Rattus norvegicus. Nature of the assay: In vivo Triglyceride lowering activity at a dose of 0.10 % of the diet. Format: functional.
Assay [7] relates to Rattus norvegicus. In words: In vivo Triglyceride lowering activity at dose as 0.01 % of the diet. Format: functional.
Assay [8] concerns Rattus norvegicus. In words: In vivo sterol lowering activity at dose of 0.10 % of the diet. Format: functional.
The test system of assay [9] is Rattus norvegicus. Nature of the assay: In vivo Triglyceride lowering activity at dose as 0.03 % of the diet. The assay is classed as functional.

What is called inhibition is the share of the control response that was lost under treatment. For `CCOC(=O)CCCNc1ccc(C(=O)OCC)cc1`, the Diet with Rattus norvegicus [1] is 103%; with Rattus norvegicus [3] it was 93%. Also, in [2], the inhibition was 11%.
Taken in the same sequence, the figures for `NC(=O)CNc1ccc(C(=O)O)cc1` were 102%, 100% and 17%.
For `CCOC(=O)c1ccc(NCCCCCCCCCCCCCCC(C)(C)C)cc1`, the inhibition in assay [2] came out at 5%. The “serum sterol level, percent of control” value in the assay with Rattus norvegicus [4] is given as under 69%; with Rattus norvegicus [5], under 78%. For the same molecule, the “serum triglyceride level (% of control)” value in the assay with Rattus norvegicus [6] is given as under 44%; in the assay with Rattus norvegicus [7] it was 79%. The “serum sterol level, % of control” value in the assay on Rattus norvegicus [8] is recorded as under 68%. In the assay with Rattus norvegicus [9], the triglyceride lowering activity is given as under 71%.
For `CCCCCCCCCCC(C#N)CCCCCNc1ccc(C(=O)O)cc1` (stereo not drawn), the inhibition in assay [2] was under 64%. For the same molecule, the results for the “serum sterol level, percent of control” value in the assay with Rattus norvegicus [4] and in the assay on Rattus norvegicus [5] were 96% and under 85%, respectively. Besides, the “serum triglyceride level (% of control)” value in the assay on Rattus norvegicus [6] is on record as under 50%; in the assay on Rattus norvegicus [7] it was 75%. The “serum sterol level, % of control” value in the assay with Rattus norvegicus [8] is 83%. Also, the triglyceride lowering activity in the assay with Rattus norvegicus [9] is under 66%.
In the assay on Rattus norvegicus [1], `CCOC(=O)c1ccc(N2CCCC2=O)cc1` showed a Diet of 72%. The molecule further gave an inhibition in [2] of 6%. Moreover, in the assay on Rattus norvegicus [8], the “serum sterol level, % of control” value came out at 84%.
As for `O=C(O)CCCNc1ccc(C(=O)O)cc1`, the Diet in the assay with Rattus norvegicus [1] was determined as 86%; in the assay with Rattus norvegicus [3], 99%. In assay [2], this molecule gave an inhibition of 0%.
`CCOC(=O)c1ccc(NCCCCCCCCCCC(F)(F)F)cc1`: in assay [2], the inhibition was under 24%. Besides, the figures for the “serum sterol level, percent of control” value with Rattus norvegicus [4] and in the assay on Rattus norvegicus [5] were under 86% and 88%, respectively. Moreover, the “serum triglyceride level (% of control)” value in the assay with Rattus norvegicus [6] is under 46%; in the assay with Rattus norvegicus [7], under 74%. The “serum sterol level, % of control” value with Rattus norvegicus [8] was under 87%. In addition, the triglyceride lowering activity in the assay with Rattus norvegicus [9] is recorded as under 61%.
Molecule `CCOC(=O)c1ccc(NCCCCCCCCCCCCCCCCSC(C)=O)cc1` yielded an inhibition in assay [2] of 0%. In addition, the “serum sterol level, percent of control” value in the assay on Rattus norvegicus [4] is 98%; with Rattus norvegicus [5] it was 96%. Moreover, the “serum triglyceride level (% of control)” value is under 57% in the assay on Rattus norvegicus [6] and 91% in the assay with Rattus norvegicus [7]. Also, the “serum sterol level, % of control” value in the assay with Rattus norvegicus [8] was 93%. In the assay on Rattus norvegicus [9], the triglyceride lowering activity is on record as 75%.
As to `CCCCCCCCCCC(C)Nc1ccc(C(=O)O)cc1` (stereo not drawn), the inhibition in [2] is under 51%. Further, the “serum sterol level, percent of control” value is listed as 94% with Rattus norvegicus [4] and under 90% in the assay with Rattus norvegicus [5]. Also, the “serum triglyceride level (% of control)” value is recorded as under 58% in the assay with Rattus norvegicus [6] and under 42% with Rattus norvegicus [7]. In addition, in the assay on Rattus norvegicus [8], the “serum sterol level, % of control” value amounted to 92%. Further, the triglyceride lowering activity with Rattus norvegicus [9] was under 49%.
`CCCCCCCCCCC(N)CCCCCNc1ccc(C(=O)[O-])cc1.[Na+]` (stereo not drawn): the inhibition in [2] worked out at 7%. In addition, the “serum sterol level, percent of control” value in the assay with Rattus norvegicus [4] was found to be 100%; in the assay on Rattus norvegicus [5], 117%. Further, the “serum triglyceride level (% of control)” value with Rattus norvegicus [6] is reported as 120%; with Rattus norvegicus [7] it was 68%. In the assay with Rattus norvegicus [8], the “serum sterol level, % of control” value came to 98%. In addition, in the assay with Rattus norvegicus [9], the triglyceride lowering activity came out at 107%.
In assay [2], `O=C(O)c1ccc(NCCCCCCCCCCCSCc2ccccc2)cc1` displayed an inhibition of under 54%. Further, the “serum sterol level, percent of control” value in the assay on Rattus norvegicus [4] amounted to 99%; in the assay on Rattus norvegicus [5], 95%. Further, the “serum triglyceride level (% of control)” value in the assay on Rattus norvegicus [6] was under 51%; in the assay with Rattus norvegicus [7], under 55%. Moreover, the “serum sterol level, % of control” value in the assay with Rattus norvegicus [8] was 90%. Moreover, the triglyceride lowering activity in the assay with Rattus norvegicus [9] is recorded as under 52%.
Turning to `CCOC(=O)c1ccc(NCCCCCCCCCCCCCCCCBr)cc1`, the inhibition in [2] came out at 10%. In addition, the “serum sterol level, percent of control” value with Rattus norvegicus [4] is listed as 99%; in the assay with Rattus norvegicus [5] it was 98%. Also, the “serum triglyceride level (% of control)” value with Rattus norvegicus [6] and in the assay on Rattus norvegicus [7] was 100% in each case. In addition, the “serum sterol level, % of control” value with Rattus norvegicus [8] is recorded as 93%. Moreover, the triglyceride lowering activity in the assay with Rattus norvegicus [9] worked out at 84%.
The molecule `CCOC(=O)c1ccc(NCCCCCCCCCCCCCC[Si](C)(C)C)cc1` gave an inhibition in assay [2] of under 50%. Moreover, the “serum sterol level, percent of control” value in the assay on Rattus norvegicus [4] is listed as 84%; in the assay with Rattus norvegicus [5] it was under 66%. The “serum triglyceride level (% of control)” value in the assay on Rattus norvegicus [6] is given as under 62%; in the assay with Rattus norvegicus [7], under 77%. In addition, the “serum sterol level, % of control” value in the assay on Rattus norvegicus [8] is reported as under 53%. In the assay with Rattus norvegicus [9], the triglyceride lowering activity is recorded as under 66%.
`CCOC(=O)c1ccc(NCCC2CCCC2)cc1` displayed an inhibition in assay [2] of 60%. Moreover, the Diet in the assay on Rattus norvegicus [3] was 96%. The “serum triglyceride level (% of control)” value in the assay with Rattus norvegicus [6] was 69%.
Consider `N#CCCCNc1ccc(C(=O)O)cc1`, for which the results for the Diet with Rattus norvegicus [1] and in the assay with Rattus norvegicus [3] were 93% and 94%, respectively. Moreover, in [2], the inhibition came out at 8%.
In [2], `O=C(O)c1ccc(NCCCCCCCCCCCO)cc1` gave an inhibition of under 30%. Also, the “serum sterol level, percent of control” value stood at 93% with Rattus norvegicus [4] and 95% in the assay with Rattus norvegicus [5]. In addition, the entries for the “serum triglyceride level (% of control)” value in the assay on Rattus norvegicus [6] and in the assay on Rattus norvegicus [7] were 78% and 111%, respectively. The “serum sterol level, % of control” value in the assay with Rattus norvegicus [8] came out at 99%. Besides, the triglyceride lowering activity in the assay with Rattus norvegicus [9] was 101%.
In [2], `O=C(CCCCCCCCCCOc1ccc(C(=O)O)cc1)Nc1ccc(C(=O)O)cc1` registered an inhibition of under 33%. Also, the “serum sterol level, percent of control” value in the assay with Rattus norvegicus [4] stood at 100%; with Rattus norvegicus [5], 93%. Also, the “serum triglyceride level (% of control)” value was 93% in the assay with Rattus norvegicus [6] and 116% in the assay with Rattus norvegicus [7]. Moreover, the “serum sterol level, % of control” value in the assay with Rattus norvegicus [8] is 100%. Also, in the assay on Rattus norvegicus [9], the triglyceride lowering activity came out at 106%.
Turning to `O=C(O)c1ccc(NCCCCCCCCCCCOc2ccc(C(=O)O)cc2)cc1`, the inhibition in assay [2] was under 36%. Besides, the “serum sterol level, percent of control” value in the assay on Rattus norvegicus [4] amounted to 103%; in the assay on Rattus norvegicus [5], 91%. Besides, the “serum triglyceride level (% of control)” value turned out to be 91% in the assay with Rattus norvegicus [6] and 90% with Rattus norvegicus [7]. Moreover, the “serum sterol level, % of control” value with Rattus norvegicus [8] is on record as 103%. The triglyceride lowering activity in the assay with Rattus norvegicus [9] turned out to be 79%.
The molecule `CCOC(=O)c1ccc(NCCC[Si](C)(C)C)cc1` showed an inhibition in assay [2] of under 59%. Also, the figures for the “serum sterol level, percent of control” value in the assay on Rattus norvegicus [4] and with Rattus norvegicus [5] were 99% and 86%, respectively. For the same molecule, the “serum triglyceride level (% of control)” value is reported as under 54% with Rattus norvegicus [6] and under 60% in the assay with Rattus norvegicus [7]. In the assay on Rattus norvegicus [8], the “serum sterol level, % of control” value is reported as under 77%. The triglyceride lowering activity in the assay with Rattus norvegicus [9] is listed as under 63%.
`CCCCCCCCCCC(=O)CCCCCNc1ccc(C(=O)OCC)cc1` registered an inhibition in assay [2] of under 19%. In addition, the “serum sterol level, percent of control” value is given as 109% with Rattus norvegicus [4] and 104% with Rattus norvegicus [5]. Moreover, the “serum triglyceride level (% of control)” value with Rattus norvegicus [6] turned out to be 81%; in the assay on Rattus norvegicus [7], 103%. Further, the “serum sterol level, % of control” value with Rattus norvegicus [8] came to 107%. The triglyceride lowering activity with Rattus norvegicus [9] was 86%.
On to `O=C(O)c1ccc(NCCCCCCCCCCC(F)(F)F)cc1`, for which the inhibition in [2] was found to be 22%. The “serum sterol level, percent of control” value in the assay on Rattus norvegicus [4] is listed as 92%; in the assay with Rattus norvegicus [5], under 80%. Besides, the “serum triglyceride level (% of control)” value with Rattus norvegicus [6] is given as under 56%; with Rattus norvegicus [7] it was under 57%. Moreover, the “serum sterol level, % of control” value in the assay on Rattus norvegicus [8] is under 69%. Further, in the assay with Rattus norvegicus [9], the triglyceride lowering activity was under 57%.

These data come from ChEMBL document CHEMBL1122462, “Potential antiatherosclerotic agents. 4. [(Functionalized-alkyl)amino]benzoic acid analogues of cetaben” (1983).
